Results from ChEMBL document CHEMBL1255267, “Reduced Susceptibility of Proteus mirabilis to triclosan” (2008).
≈ marks a conversion by molar mass, not a printed value.

How the values were obtained:
Assay type in all cases: functional
Proteus mirabilis [1] = test: Antibacterial activity against Proteus mirabilis M 48 mutant after 18 hrs by Etest method; settings: M 48, 18 h
Proteus mirabilis [2] = test: Antibacterial activity against Proteus mirabilis NP14 after 18 hrs by Etest method; settings: NP14, 18 h
Proteus mirabilis [3] = test: Antibacterial activity against Proteus mirabilis NP55 after 18 hrs by Etest method; settings: NP55, 18 h
Proteus mirabilis [4] = test: Antibacterial activity against Proteus mirabilis NP37 after 18 hrs by Etest method; settings: NP37, 18 h
Proteus mirabilis [5] = test: Antibacterial activity against Proteus mirabilis M 29 mutant after 18 hrs by Etest method; settings: M 29, 18 h
Proteus mirabilis [6] = test: Antibacterial activity against Proteus mirabilis M 42 mutant after 18 hrs by Etest method; settings: M 42, 18 h
Proteus mirabilis [7] = test: Antibacterial activity against Proteus mirabilis M 21 mutant after 18 hrs by Etest method; settings: M 21, 18 h
Proteus mirabilis [8] = test: Antibacterial activity against Proteus mirabilis M 35 mutant after 18 hrs by Etest method; settings: M 35, 18 h
Escherichia coli = test: Antibacterial activity against Escherichia coli 10418 after 18 hrs by Etest method; settings: Escherichia coli, 10418, 18 h
Proteus mirabilis [9] = test: Antibacterial activity against Proteus mirabilis M 55 mutant after 18 hrs by Etest method; settings: M 55, 18 h
Proteus mirabilis [10] = test: Antibacterial activity against Proteus mirabilis NP43 after 18 hrs by Etest method; settings: NP43, 18 h
Proteus mirabilis [11] = test: Antibacterial activity against Proteus mirabilis M 17 mutant after 18 hrs by Etest method; settings: M 17, 18 h
Proteus mirabilis [12] = test: Antibacterial activity against Proteus mirabilis M 19 mutant after 18 hrs by Etest method; settings: M 19, 18 h
Proteus mirabilis [13] = test: Antibacterial activity against Proteus mirabilis M 31 mutant after 18 hrs by Etest method; settings: M 31, 18 h
Proteus mirabilis [14] = test: Antibacterial activity against Proteus mirabilis M 23 mutant after 18 hrs by Etest method; settings: M 23, 18 h
Proteus mirabilis [15] = test: Antibacterial activity against Proteus mirabilis B2 after 18 hrs by Etest method; settings: B2, 18 h
Proteus mirabilis [16] = test: Antibacterial activity against Proteus mirabilis M 26 mutant after 18 hrs by Etest method; settings: M 26, 18 h
Proteus mirabilis [17] = test: Antibacterial activity against Proteus mirabilis M 12 mutant after 18 hrs by Etest method; settings: M 12, 18 h
Proteus mirabilis [18] = test: Antibacterial activity against Proteus mirabilis M 44 mutant after 18 hrs by Etest method; settings: M 44, 18 h
Proteus mirabilis [19] = test: Antibacterial activity against Proteus mirabilis M 40 mutant after 18 hrs by Etest method; settings: M 40, 18 h

Row | SMILES | MIC (Proteus mirabilis [1]) [µg/mL] | MIC (Proteus mirabilis [2]) [µg/mL] | MIC (Proteus mirabilis [3]) [µg/mL] | MIC (Proteus mirabilis [4]) [µg/mL] | MIC (Proteus mirabilis [5]) [µg/mL] | MIC (Proteus mirabilis [6]) [µg/mL] | MIC (Proteus mirabilis [7]) [µg/mL] | MIC (Proteus mirabilis [8]) [µg/mL] | MIC (Escherichia coli) [µg/mL] | MIC (Proteus mirabilis [9]) [µg/mL] | MIC (Proteus mirabilis [10]) [µg/mL] | MIC (Proteus mirabilis [11]) [µg/mL] | MIC (Proteus mirabilis [12]) [µg/mL] | MIC (Proteus mirabilis [13]) [µg/mL] | MIC (Proteus mirabilis [14]) [µg/mL] | MIC (Proteus mirabilis [15]) [µg/mL] | MIC (Proteus mirabilis [16]) [µg/mL] | MIC (Proteus mirabilis [17]) [µg/mL] | MIC (Proteus mirabilis [18]) [µg/mL] | MIC (Proteus mirabilis [19]) [µg/mL]
1 | CC1(C)S[C@@H]2[C@H](NC(=O)[C@H](N)c3ccccc3)C(=O)N2[C@H]1C(=O)O [AMPICILLIN] | > 256 | 16 (≈ 45.8 µM) | > 256 | > 256 | > 256 | > 256 | 16 (≈ 45.8 µM) | > 256 | 0.5 (≈ 1.43 µM) | > 256 | 0.4 (≈ 1.14 µM) | 0.19 (≈ 0.544 µM) | 12 (≈ 34.3 µM) | > 256 | 12 (≈ 34.3 µM) | > 256 | > 256 | 0.13 (≈ 0.372 µM) | > 256 | > 256
2 | CC1=C(C(=O)O)N2C(=O)[C@@H](NC(=O)[C@H](N)c3ccccc3)[C@H]2SC1 [CEPHALEXIN ANHYDROUS] | 3 (≈ 8.64 µM) | 3 (≈ 8.64 µM) | 4 (≈ 11.5 µM) | 4 (≈ 11.5 µM) | 2 (≈ 5.76 µM) | 4 (≈ 11.5 µM) | 3 (≈ 8.64 µM) | 3 (≈ 8.64 µM) | 2 (≈ 5.76 µM) | 4 (≈ 11.5 µM) | 4 (≈ 11.5 µM) | 1 (≈ 2.88 µM) | 4 (≈ 11.5 µM) | 3 (≈ 8.64 µM) | 3 (≈ 8.64 µM) | 6 (≈ 17.3 µM) | 3 (≈ 8.64 µM) | 1.5 (≈ 4.32 µM) | 4 (≈ 11.5 µM) | 3 (≈ 8.64 µM)
3 | O=C(O)c1cn(C2CC2)c2cc(N3CCNCC3)c(F)cc2c1=O [CIPROFLOXACIN] | 0.02 (≈ 0.0604 µM) | 0.06 (≈ 0.181 µM) | 0.016 (≈ 0.0483 µM) | 0.02 (≈ 0.0604 µM) | 0.008 (≈ 0.0241 µM) | 0.016 (≈ 0.0483 µM) | 0.05 (≈ 0.151 µM) | 0.016 (≈ 0.0483 µM) |  | 0.02 (≈ 0.0604 µM) | 0.01 (≈ 0.0302 µM) | 0.006 (≈ 0.0181 µM) | 0.05 (≈ 0.151 µM) | 0.008 (≈ 0.0241 µM) | 0.05 (≈ 0.151 µM) | 0.02 (≈ 0.0604 µM) | 0.012 (≈ 0.0362 µM) | 0.006 (≈ 0.0181 µM) | 0.03 (≈ 0.0905 µM) | 0.012 (≈ 0.0362 µM)
4 | CCn1cc(C(=O)O)c(=O)c2ccc(C)nc21 [NALIDIXIC ACID] | 1.5 (≈ 6.46 µM) | 3 (≈ 12.9 µM) | 3 (≈ 12.9 µM) | 4 (≈ 17.2 µM) | 2 (≈ 8.61 µM) | 2 (≈ 8.61 µM) | 3 (≈ 12.9 µM) | 2 (≈ 8.61 µM) | 0.38 (≈ 1.64 µM) | 1.5 (≈ 6.46 µM) | 2 (≈ 8.61 µM) | 2 (≈ 8.61 µM) | 2 (≈ 8.61 µM) | 1.5 (≈ 6.46 µM) | 2 (≈ 8.61 µM) | 2 (≈ 8.61 µM) | 1.5 (≈ 6.46 µM) | 1.5 (≈ 6.46 µM) | 1.5 (≈ 6.46 µM) | 1.5 (≈ 6.46 µM)
